# “And” between values parts separate entries of the source, which are not always exact repeats. Equal values may be shown once. Toxic doses and inconclusive results are not listed.
# System: L1210 leukemia ip in BDF1 mice, survival T/C
# Experiment: NCI In Vivo Anticancer Drug Screen. Data for tumor model L1210 Leukemia (intraperitoneal) in B6D2F1 (BDF1) mice
# Settings: endpoint: mean survival time, higher = longer survival
# Summary of the method: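 Ratio derived from survival: compound-dosed mice over vehicle-dosed mice, all bearing a transplantable tumor.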
# [1] = dose: 12.5 mg/kg/injection, schedule: Q04DX003 (ip), vehicle: Klucel (hydroxypropylcellulose) (HPC)
# [2] = dose: 25.0 mg/kg/injection, schedule: Q04DX003 (ip), vehicle: Klucel (hydroxypropylcellulose) (HPC)
# [3] = dose: 50.0 mg/kg/injection, schedule: Q04DX003 (ip), vehicle: Klucel (hydroxypropylcellulose) (HPC)
# [4] = dose: 100.0 mg/kg/injection, schedule: Q01DX009 (ip), vehicle: Klucel (hydroxypropylcellulose) (HPC)
# [5] = dose: 100.0 mg/kg/injection, schedule: Q04DX003 (ip), vehicle: Klucel (hydroxypropylcellulose) (HPC)
# [6] = dose: 200.0 mg/kg/injection, schedule: Q01DX009 (ip), vehicle: Klucel (hydroxypropylcellulose) (HPC)
# [7] = dose: 200.0 mg/kg/injection, schedule: Q04DX003 (ip), vehicle: Klucel (hydroxypropylcellulose) (HPC)
# [8] = dose: 400.0 mg/kg/injection, schedule: Q01DX009 (ip), vehicle: Klucel (hydroxypropylcellulose) (HPC)
# [9] = dose: 400.0 mg/kg/injection, schedule: Q04DX003 (ip), vehicle: Klucel (hydroxypropylcellulose) (HPC)
# [10] = dose: 100.0 mg/kg/injection, schedule: Q04DX003 (ip), vehicle: saline
# [11] = dose: 200.0 mg/kg/injection, schedule: Q04DX003 (ip), vehicle: saline
# [12] = dose: 400.0 mg/kg/injection, schedule: Q04DX003 (ip), vehicle: saline
# [13] = dose: 100.0 mg/kg/injection, schedule: Q01DX009 (ip), vehicle: saline with Tween-80
# [14] = dose: 200.0 mg/kg/injection, schedule: Q01DX009 (ip), vehicle: saline with Tween-80
# [15] = dose: 400.0 mg/kg/injection, schedule: Q01DX009 (ip), vehicle: saline with Tween-80
smiles,measurement,setting,value
C=CCC[P+](c1ccccc1)(c1ccccc1)c1ccccc1,T/C,[1],97 % of control
same,T/C,"dose: 16.0 mg/kg/injection, schedule: Q04DX003 (ip), vehicle: Klucel (hydroxypropylcellulose) (HPC)",90 % of control
same,T/C,[2],104 % of control
same,T/C,"dose: 35.0 mg/kg/injection, schedule: Q04DX003 (ip), vehicle: Klucel (hydroxypropylcellulose) (HPC)",101 % of control
same,T/C,[3],95 % of control and 103 % of control
C=CCc1cc2c(cc(OC)c1=O)C(NC(C)=O)CCc1cc(OC)c(OC)c(OC)c1-2 (centres undefined),T/C,"dose: 100.0 mg/kg/injection, schedule: Q01DX001 (ip), vehicle: carboxymethylcellulose (CMC)",106 % of control
same,T/C,"dose: 200.0 mg/kg/injection, schedule: Q01DX001 (ip), vehicle: carboxymethylcellulose (CMC)",109 % of control
same,T/C,"dose: 400.0 mg/kg/injection, schedule: Q01DX001 (ip), vehicle: carboxymethylcellulose (CMC)",114 % of control
[Cl][Pd][Cl].[NH-]C1CCCCC1.[NH-]C1CCCCC1,T/C,"dose: 50.0 mg/kg/injection, schedule: Q04DX002 (ip), vehicle: Klucel (hydroxypropylcellulose) (HPC)",94 % of control
same,T/C,"dose: 100.0 mg/kg/injection, schedule: Q04DX002 (ip), vehicle: Klucel (hydroxypropylcellulose) (HPC)",102 % of control
same,T/C,"dose: 200.0 mg/kg/injection, schedule: Q04DX002 (ip), vehicle: Klucel (hydroxypropylcellulose) (HPC)",87 % of control
COC(=O)C#CC(=O)OC,T/C,"dose: 3.13 mg/kg/injection, schedule: Q04DX003 (ip), vehicle: Klucel (hydroxypropylcellulose) (HPC)",101 % of control
same,T/C,"dose: 6.25 mg/kg/injection, schedule: Q04DX003 (ip), vehicle: Klucel (hydroxypropylcellulose) (HPC)",99 % of control
same,T/C,[1],111 % of control
COC(=O)C(OC(=O)n1ccnc1)(c1ccccc1)c1ccccc1,T/C,"dose: 100.0 mg/kg/injection, schedule: Q04DX002 (ip), vehicle: gum acacia",112 % of control
same,T/C,"dose: 200.0 mg/kg/injection, schedule: Q04DX002 (ip), vehicle: gum acacia",94 % of control
same,T/C,"dose: 400.0 mg/kg/injection, schedule: Q04DX002 (ip), vehicle: gum acacia",97 % of control
C=CCC1(O)C(c2ccccc2)=C(c2ccccc2)C(c2ccccc2)=C1c1ccccc1,T/C,"dose: 50.0 mg/kg/injection, schedule: Q01DX001 (ip), vehicle: other",98 % of control
same,T/C,"dose: 100.0 mg/kg/injection, schedule: Q01DX001 (ip), vehicle: other",96 % of control
same,T/C,"dose: 200.0 mg/kg/injection, schedule: Q01DX001 (ip), vehicle: other",98 % of control
same,T/C,"dose: 400.0 mg/kg/injection, schedule: Q01DX001 (ip), vehicle: other",98 % of control
Cc1cccc(NS(=O)(=O)c2ccccc2)c1C,T/C,[4],91 % of control
same,T/C,[5],97 % of control
same,T/C,[6],91 % of control
same,T/C,[7],93 % of control
same,T/C,[8],98 % of control
same,T/C,[9],98 % of control
CC(C)(CO)N=Cc1ccccc1Cl,T/C,"dose: 100.0 mg/kg/injection, schedule: Q01DX001 (ip), vehicle: saline",102 % of control
same,T/C,"dose: 200.0 mg/kg/injection, schedule: Q01DX001 (ip), vehicle: saline",100 % of control
same,T/C,"dose: 400.0 mg/kg/injection, schedule: Q01DX001 (ip), vehicle: saline",100 % of control
CN(C)C(=O)C1C2CCC(C3CC32)C1C(=O)N(C)C (centres undefined),T/C,"dose: 75.0 mg/kg/injection, schedule: Q01DX009 (ip), vehicle: saline",95 % of control
same,T/C,[10],106 % of control
same,T/C,"dose: 150.0 mg/kg/injection, schedule: Q01DX009 (ip), vehicle: saline",97 % of control
same,T/C,[11],106 % of control
same,T/C,"dose: 300.0 mg/kg/injection, schedule: Q01DX009 (ip), vehicle: saline",95 % of control
same,T/C,[12],103 % of control
C=C(C)CSC(=S)NNc1ccccc1,T/C,"dose: 150.0 mg/kg/injection, schedule: Q01DX009 (ip), vehicle: saline with Tween-80",93 % of control
same,T/C,"dose: 225.0 mg/kg/injection, schedule: Q01DX009 (ip), vehicle: saline with Tween-80",86 % of control
CCCCCCCCCC(C)Cc1ccccc1 (centres undefined),T/C,"dose: 100.0 mg/kg/injection, schedule: Q01DX001 (ip), vehicle: saline with Tween-80",100 % of control
same,T/C,"dose: 200.0 mg/kg/injection, schedule: Q01DX001 (ip), vehicle: saline with Tween-80",100 % of control
same,T/C,"dose: 400.0 mg/kg/injection, schedule: Q01DX001 (ip), vehicle: saline with Tween-80",92 % of control
O=C(O)c1ccccc1C(=O)NNC(=O)c1ccccc1C(=O)O,T/C,[13],97 % of control
same,T/C,"dose: 100.0 mg/kg/injection, schedule: Q04DX003 (ip), vehicle: saline with Tween-80",97 % of control
same,T/C,[14],94 % of control
same,T/C,"dose: 200.0 mg/kg/injection, schedule: Q04DX003 (ip), vehicle: saline with Tween-80",108 % of control
same,T/C,[15],94 % of control
same,T/C,"dose: 400.0 mg/kg/injection, schedule: Q04DX003 (ip), vehicle: saline with Tween-80",92 % of control
COc1ccccc1N1CCN(CCCC(=O)c2ccc(F)cc2)CC1,T/C,"dose: 12.5 mg/kg/injection, schedule: Q01DX009 (ip), vehicle: Klucel (hydroxypropylcellulose) (HPC)",96 % of control
same,T/C,"dose: 25.0 mg/kg/injection, schedule: Q01DX009 (ip), vehicle: Klucel (hydroxypropylcellulose) (HPC)",105 % of control
same,T/C,[2],108 % of control
same,T/C,"dose: 50.0 mg/kg/injection, schedule: Q01DX009 (ip), vehicle: Klucel (hydroxypropylcellulose) (HPC)",105 % of control
same,T/C,[3],111 % of control
same,T/C,[4],122 % of control
same,T/C,[5],116 % of control
same,T/C,[7],111 % of control
CCCCNc1c(NCCCC)c(=O)c1=O,T/C,[5],90 % of control
same,T/C,[7],90 % of control
same,T/C,[9],91 % of control
FC(F)(F)/C([S-])=C(/[S-])C(F)(F)F.FC(F)(F)/C([S-])=C(/[S-])C(F)(F)F.FC(F)(F)/C([S-])=C(/[S-])C(F)(F)F.FC(F)(F)/C([S-])=C(/[S-])C(F)(F)F.[Co+3].[Co+3],T/C,"dose: 12.5 mg/kg/injection, schedule: Q01DX009 (ip), vehicle: other",113 % of control
same,T/C,"dose: 25.0 mg/kg/injection, schedule: Q01DX009 (ip), vehicle: other",104 % of control
CC(=O)n1c(O)c(N=NC(=O)c2ccccc2[N+](=O)[O-])c2ccccc21,T/C,[4],86 % of control
same,T/C,[6],93 % of control
same,T/C,[8],89 % of control
CCN=C(c1ccc(NC(=O)c2ccc(C(=O)Nc3ccc(C(=NCC)N(CC)C(=O)NCCCl)cc3)cc2)cc1)N(CC)C(=O)NCCCl,T/C,"dose: 3.75 mg/kg/injection, schedule: Q01DX015 (ip), vehicle: methylcellulose (MC)",107 % of control
same,T/C,"dose: 7.5 mg/kg/injection, schedule: Q01DX015 (ip), vehicle: methylcellulose (MC)",113 % of control
NC(=NCc1ccccc1)c1ccc(N=C(N)c2ccc(C(N)=Nc3ccc(C(N)=NCc4ccccc4)cc3)cc2)cc1,T/C,"dose: 5.0 mg/kg/injection, schedule: Q01DX001 (ip), vehicle: water",95 % of control
same,T/C,"dose: 6.25 mg/kg/injection, schedule: Q01DX009 (ip), vehicle: saline",119 % of control
same,T/C,"dose: 10.0 mg/kg/injection, schedule: Q01DX001 (ip), vehicle: water",96 % of control
same,T/C,"dose: 12.5 mg/kg/injection, schedule: Q01DX009 (ip), vehicle: saline",153 % of control
same,T/C,"dose: 12.5 mg/kg/injection, schedule: Q01DX015 (oral), vehicle: water",95 % of control
same,T/C,"dose: 15.0 mg/kg/injection, schedule: Q01DX001 (ip), vehicle: water",98 % of control
same,T/C,"dose: 18.0 mg/kg/injection, schedule: Q01DX015 (ip), vehicle: water",249 % of control
same,T/C,"dose: 20.0 mg/kg/injection, schedule: Q01DX001 (ip), vehicle: water",107 % of control
same,T/C,"dose: 25.0 mg/kg/injection, schedule: Q01DX009 (ip), vehicle: saline",114 % of control
same,T/C,"dose: 25.0 mg/kg/injection, schedule: Q01DX015 (ip), vehicle: water",222 % of control and 256 % of control
same,T/C,"dose: 25.0 mg/kg/injection, schedule: Q01DX015 (oral), vehicle: water",91 % of control
same,T/C,"dose: 50.0 mg/kg/injection, schedule: Q01DX015 (oral), vehicle: water",98 % of control
same,T/C,"dose: 100.0 mg/kg/injection, schedule: Q01DX015 (oral), vehicle: water",98 % of control
CCCCCCCCSSCCCCCCCC,T/C,[13],97 % of control
same,T/C,[10],95 % of control
same,T/C,[14],95 % of control
same,T/C,[11],98 % of control
same,T/C,[15],91 % of control
same,T/C,[12],95 % of control

# — PubChem BioAssay AID248 (DTP/NCI, 2004)
